One experiment relates to CEM cells. As to the kind of experiment: Cell cytotoxicity assay on CEM cells. The format is cell-based. As to conditions: Homo sapiens, CCRF-CEM, concentration that inhibited 50% of cell growth, read-out: IC50 (μM) CEM. Summed up:
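MT-2 and CEM cytotoxicity determined per previously reported procedures. HepG2 cells seeded at 10^4 cells/ml in MEME + 10% FBS, compound added on day 2 for 3 further days at 37° C. Viable layer stained with methylene blue, solubilized in 1% sarcosyl, A595 read.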

For a further experiment, the system named is wt (ayw) HBV. As to the kind of experiment: HBV DNA inhibition in HepG2.2.15 cells, Southern blot hybridization. In kind it is cell-based. To be noted: Hepatitis B virus, HepG2.2.15, 144 h, read-out: EC50 (μM) wt (ayw), HepG2.2.15 cells, 6-day treatment, HBV DNA by Southern blot. The method, then:
(§1) Southern blot hybridization was used to measure the effects of compounds on HBV DNA. Total DNA from cells was extracted using Dneasy Tissue kit (Qiagen Inc. Valencia, Calif.) and separated on a 0.8% agarose gel. Separated DNA was transferred to a Hybond-N+membrane (Amersham Pharmacia Biotech Inc. Piscataway, N.J.). Inhibition of viral DNA replication was assessed by comparison of the replicative HBV DNA from drug-treated versus untreated cultures using hybridization of the membrane with a [α-^32P] dCTP labeled whole HBV DNA probe followed by autoradiography. Quantitative densitometry was performed on a Molecular Dynamics Densitometer (Amersham Pharmacia Biotech Inc. Piscataway, N.J.) using ImageQuaNT image analysis software. The integrated HBV genome was used as the internal control to normalize the amount of DNA loaded. Northern blot hybridization was used to measure the effects of the compounds on HBV RNA. Total intracellular RNA was extracted from cells using Rneasy kit (Qiagen Inc. Valencia, Calif.). RNA was separated in a 1.2% formaldehyde agarose gel and transferred to a Hybond-N+ membrane (Amersham Pharmacia Biotech Inc. Piscataway, N.J.). The membrane was hybridized with the same probe mentioned above at 65° C. followed by autoradiography. GAPDH RNA level was used as an internal control to normalize the amount of RNA loaded. The decrease of HBV core protein expression was assessed by western blot. A cellular crude extract of […] cells was separated on a 12% SDS-PAGE gel and transferred onto a nitrocellulose membrane (Bio-rad Laboratories, Hercules, Calif.). Anti-HBV core antibody (DAKO Corp. Carpinteria, Calif.) and anti rabbit IgG secondary antibody (Sigma. St. Louis, Mo.) were added. Actin protein level was used as the internal control.
Hep.G2.2.15 is a hepatoblastoma cell line stably transfected with a HBV genome (ayw strain) (Sells et al., 1987, Proc Natl Acad Sci USA. 84 (4):1005-1009). […]
The effect of helioxanthin and 22 on HBV DNA in HepG2.2.15 cells, which is stably transfected with the HBV genome, was assessed. […]

Experiment [1] has as its system HBV 3.5 kb, 2.4/2.1 kb transcripts. As to the kind of experiment: HBV RNA in HepG2.2.15 cells, Northern blot hybridization. The format is cell-based, Hepatitis B virus. As to conditions: for EC50: Hepatitis B virus, 144 h, read-out: EC50 for the 3.5 kb transcript. As to the method:
as §1
Since helioxanthin and its derivatives are a unique class of chemical with anti-HBV activity, the mechanism of HBV inhibition was examined by first assessing their impact on HBV mRNA. The HepG2.2.15 cells treated with these two drugs for 6 days, then a Northern blot analysis on the total cellular RNA was performed with a HBV specific [α-^32P] dCTP labeled probe. […] Lamivudine had no effect on HBV RNA level.

The mark [2] stands for this setting: HepG2.2.15 cells, 6 days, Northern blot.

Read-outs that look alike come from different tables or passages of the source. Some results are limits rather than exact numbers.

For orientation: IC50 means the point on the concentration scale where inhibition reaches its midpoint. One may read the EC50 as the concentration giving half of the maximal effect. Consider `O=C1OCc2c1cc1ccc3c(c1c2-c1ccc2c(c1)OCO2)OCO3` [Compound 2, 10-Benzo[1,3]dioxol-5-yl-9H-furo[3′,4′:6,7]naphtho[1,2-d][1,3]dioxol-7-one, reference compound], for which the IC50 in the experiment on CEM cells amounted to 32 µM. Besides, the half-maximal effective concentration (EC50) in the experiment on wt (ayw) HBV is approximately 1 µM; in experiment [1] (setting [2]) it was 90 nM. Besides, the “effect on HBV 3.5 kb, 2.4/2.1 kb transcripts (HBV RNA level)” value (shortened to “effect on HBV 3.5 kb”) in experiment [1] (HepG2.2.15 cells, 6 days, Northern blot, listed as helioxanthin) is “decreased 3.5 kb, 2.4/2.1 kb HBV transcripts in a dose-dependent manner”.
Regarding `Nc1ccn([C@@H]2CS[C@H](CO)O2)c(=O)n1` [Compound 3TC, (−)-(2R,5S)-1-[2-(hydroxymethyl)oxathiolan-5-yl]cytosine], the IC50 with CEM cells was more than 100 µM. In addition, the EC50 with wt (ayw) HBV amounted to 0.05 ± 0.03 µM. Moreover, in experiment [1], the “effect on HBV 3.5 kb” value is “no effect”.
`COc1ccc(-c2c3c(cc4ccc5c(c24)OCO5)C(=O)NC3)cc1OC` [Compound 22, 10-(3,4-Dimethoxy-phenyl)-8,9-dihydro-1,3-dioxa-8-aza-dicyclopenta[a,g]naphthalen-7-one]: the IC50 in the experiment on CEM cells was determined as 3.6 ± 1.2 µM. The EC50 in the experiment on wt (ayw) HBV was approximately 0.08 µM. Besides, in experiment [1] (setting [2]), the “effect on HBV 3.5 kb” value is “decreased 3.5 kb, 2.4/2.1 kb HBV transcripts in a dose-dependent manner” and the EC50 amounted to 1000 nM.
